This note sets out measurements from ChEMBL document CHEMBL6121062, “Discovery, Optimization, and Preclinical Pharmacology of EP652, a METTL3 Inhibitor with Efficacy in Liquid and Solid Tumor Models” (J Med Chem, 2025).

For one data set, the target named is METTL3/METTL14 (Homo sapiens, UniProt Q86U44). Briefly: Displacement of [3H]-SAM from METTL3/METTL14 (unknown origin) using 5'biotinylated-UACACUCGAUCUGGACUAAAGGUGCUC-3' RNA as substrate preincubated for 10 mins followed by substrate/[3H]-SAM addition measured after 90 mins by SPA. The format is protein-complex assay.
For the next data set, the system named is Kasumi 1. Briefly: Antiproliferative activity against human Kasumi 1 cells assessed as inhibition of cell viability incubated for 72 hrs by ATPlite assay. Format: functional, cell-based. To be noted: Kasumi 1, 72 h.
The nature of data set [1]: Lipophilicity, logD of compound in 1-octanol/PBS at pH 7.4 incubated for 24 hrs by HPLC analysis. The format is physicochemical.
Data set [2] in a line: Unbound fraction in Sprague-Dawley rat plasma at 1 mg/kg/day, iv measured for 24 hrs by LC-MS/MS analysis. The format is ADME, organism-based. Particulars: in vivo.
Data set [3] in a line: Unbound clearance in Sprague-Dawley rat at 1 mg/kg/day, iv measured for 24 hrs by LC-MS/MS analysis. The format is ADME, organism-based. To be noted: in vivo.
The nature of data set [4]: Unbound AUC in Sprague-Dawley rat at 1 mg/kg/day, iv measured for 24 hrs by LC-MS/MS analysis. The format is ADME, organism-based. To be noted: in vivo.

METTL3/METTL14, sequence (Q86U44 whole entry): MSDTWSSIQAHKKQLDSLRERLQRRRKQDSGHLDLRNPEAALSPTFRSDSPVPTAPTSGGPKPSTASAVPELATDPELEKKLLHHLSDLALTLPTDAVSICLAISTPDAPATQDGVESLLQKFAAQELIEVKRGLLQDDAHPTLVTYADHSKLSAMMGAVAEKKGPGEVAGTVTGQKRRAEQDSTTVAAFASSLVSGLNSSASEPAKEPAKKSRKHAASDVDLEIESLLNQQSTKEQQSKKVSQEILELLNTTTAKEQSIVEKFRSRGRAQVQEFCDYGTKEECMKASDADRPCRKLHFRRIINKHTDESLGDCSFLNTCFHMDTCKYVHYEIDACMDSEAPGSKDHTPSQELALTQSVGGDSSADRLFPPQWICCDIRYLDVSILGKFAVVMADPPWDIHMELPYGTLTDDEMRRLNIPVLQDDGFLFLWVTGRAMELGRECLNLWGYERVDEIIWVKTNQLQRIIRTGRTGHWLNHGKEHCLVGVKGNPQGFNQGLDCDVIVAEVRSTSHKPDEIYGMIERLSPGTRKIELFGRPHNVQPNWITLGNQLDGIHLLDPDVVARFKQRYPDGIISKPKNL
METTL3/METTL14, sequence (Q9HCE5 whole entry, further chain): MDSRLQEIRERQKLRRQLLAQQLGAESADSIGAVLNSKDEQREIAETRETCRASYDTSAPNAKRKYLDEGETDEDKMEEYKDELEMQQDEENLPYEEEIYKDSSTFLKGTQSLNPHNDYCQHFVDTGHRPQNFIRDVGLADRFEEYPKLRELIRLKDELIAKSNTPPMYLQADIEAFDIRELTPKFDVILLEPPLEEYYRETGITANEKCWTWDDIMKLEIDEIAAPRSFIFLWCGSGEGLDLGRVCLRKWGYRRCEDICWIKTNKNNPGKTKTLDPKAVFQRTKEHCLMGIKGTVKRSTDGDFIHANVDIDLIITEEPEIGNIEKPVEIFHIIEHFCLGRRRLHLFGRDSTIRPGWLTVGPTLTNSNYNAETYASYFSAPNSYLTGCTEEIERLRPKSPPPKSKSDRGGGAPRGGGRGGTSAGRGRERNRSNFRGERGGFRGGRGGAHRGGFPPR

Regarding `COc1cncc(-c2cn([C@H](C)n3ccc(N4CCC[C@@H](NCC5CCC5)C4)cc3=O)nn2)c1`, the IC50 on METTL3/METTL14 came to 2 nM; with Kasumi 1, 489 nM. The compound also had a logD at 24 h in data set [1] of 1.5. This compound also had a Fu in data set [2] of 17.4%. This compound had a CL free in data set [3] of 645 mL/min/kg. The compound further yielded a fAUC in data set [4] of 3.8 µM·min.
For the compound `COc1cncc(-c2cn(C(C)(C)c3ccc(N4CCC[C@@H](NCC5CCC5)C4)nn3)nn2)c1`, the IC50 at METTL3/METTL14 was determined as 6 nM; in the data set with Kasumi 1, 2070 nM. In data set [1], this compound showed a logD at 24 h of 1.69. For the same compound, in data set [2], the Fu stood at 15.3%. In data set [3], this compound yielded a CL free of 421 mL/min/kg. In data set [4], the fAUC was determined as 4.9 µM·min.
For `COc1cncc(-c2cn(Cc3ccc(N4CCC[C@@H](NCC5CCC5)C4)nn3)nn2)c1`, the IC50 is 6 nM at METTL3/METTL14 and 1930 nM with Kasumi 1. In data set [1], this compound returned a logD at 24 h of 1.47. The compound further returned a Fu in data set [2] of 11.1%. The same compound returned a CL free in data set [3] of 596 mL/min/kg. Besides, the fAUC in data set [4] stood at 5.7 µM·min.
Turning to `COc1cncc(-c2cn(C(C)c3ccc(N4CCC[C@@H](NCC5CCC5)C4)cn3)nn2)c1` (stereo partly specified), the IC50 at METTL3/METTL14 was 4 nM; in the data set on Kasumi 1 it was 2100 nM. Besides, the logD at 24 h in data set [1] stood at 1.65. In data set [2], this compound displayed a Fu of 14.1%. The CL free in data set [3] is 263 mL/min/kg. Moreover, in data set [4], the fAUC stood at 10.9 µM·min.
Take `COc1cncc(-c2cn(C(C)c3ccc(N4CCC[C@@H](NCC5CCC5)C4)nn3)nn2)c1` (stereo partly specified): the IC50 is 4 nM at METTL3/METTL14 and 904 nM in the data set on Kasumi 1. The compound further registered a pH-dependent lipophilicity (logD) at 24 h in data set [1] of 1.62. The compound further had a Fu in data set [2] of 14%. The CL free in data set [3] was found to be 423 mL/min/kg. In addition, the fAUC in data set [4] is 5.3 µM·min.
Turning to `COc1cncc(-c2cn(Cc3ccc(N4CCC[C@@H](NCC5CCC5)C4)cn3)nn2)c1`, the IC50 at METTL3/METTL14 stood at 4 nM; with Kasumi 1, 894 nM. Moreover, in data set [1], the logD at 24 h is 1.21. Also, the Fu in data set [2] was 8.9%. This compound displayed a CL free in data set [3] of 934 mL/min/kg. Also, the fAUC in data set [4] stood at 2.4 µM·min.
With `CCC(c1ccc(N2CCC[C@@H](NCC3CCC3)C2)nn1)n1cc(-c2cncc(OC)c2)nn1` (stereo partly specified), the IC50 on METTL3/METTL14 came to 31 nM; in the data set on Kasumi 1, 6000 nM. The compound also gave a logD at 24 h in data set [1] of 1.9. The Fu in data set [2] was 11.2%.
Consider `CCOc1cncc(-c2cn(C(C)n3ccc(N4CCC[C@@H](NCC5CCC5)C4)cc3=O)nn2)c1` (stereo partly specified), for which the IC50 on METTL3/METTL14 was 2 nM; in the data set on Kasumi 1 it was 302 nM. Besides, the logD at 24 h in data set [1] is 2.07. This compound registered a CL free in data set [3] of 1112 mL/min/kg. The fAUC in data set [4] was found to be 2.1 µM·min.
`C[C@@H](n1cc(-c2cncc(N3CCCC3)n2)nn1)n1ccc(N2CCC[C@@H](NCC3CC3)C2)cc1=O`: the IC50 at METTL3/METTL14 came to 1 nM; in the data set with Kasumi 1, 13 nM. In data set [1], this compound yielded a logD at 24 h of 1.6. This compound also came in with a CL free in data set [3] of 443 mL/min/kg. This compound also gave a fAUC in data set [4] of 4.7 µM·min.
Consider `COc1cncc(-c2cn(Cn3ccc(N4CCC[C@@H](NCC5CCC5)C4)cc3=O)nn2)c1`, for which the results for the IC50 at METTL3/METTL14 and with Kasumi 1 were 3 nM and 1100 nM, respectively. The compound further came in with a log distribution coefficient (logD) at 24 h in data set [1] of 1.51. Besides, the Fu in data set [2] was 9.3%. The CL free in data set [3] stood at 854 mL/min/kg. Moreover, in data set [4], the fAUC came to 2.7 µM·min.
Take `CC(n1cc(-c2cncc(N3CCCC3)c2)nn1)n1ccc(N2CCC[C@@H](NCC3CCC3)C2)cc1=O` (stereo partly specified): the results for the IC50 at METTL3/METTL14 and in the data set with Kasumi 1 were 2 nM and 7 nM, respectively. For the same compound, in data set [1], the logD at 24 h stood at 2.49. The CL free in data set [3] is 1913 mL/min/kg. The compound further yielded a fAUC in data set [4] of 1 µM·min.
Taken in the same sequence, the figures for `COc1cc(-c2cn(C(C)n3ccc(N4CCC[C@@H](NCC5CCC5)C4)cc3=O)nn2)c2cn[nH]c2c1` (stereo partly specified) were 2 nM, 437 nM, 2.13, 2269 mL/min/kg and 0.9 µM·min.
